Earlier results, collected in patent publication US12247053B2 (priority 2018, dated 2025).

Tested on: 2009 swine flu influenza A(H1N1)
For `NC12CC3CC(CC(C3)C1)C2` [amantadine], the “susceptibility of the virus” value is given as “resistant”. For `CCOC(=O)C1=C[C@@H](OC(CC)CC)[C@H](NC(C)=O)[C@@H](N)C1` [oseltamivir], the “susceptibility of the virus” value is given as “susceptible”. In the case of `CC(N)C12CC3CC(CC(C3)C1)C2` (stereo not shown) [rimantadine], the “susceptibility of the virus” value is listed as “resistant”. In the case of `CC(=O)N[C@H]1[C@H]([C@H](O)[C@H](O)CO)OC(C(=O)O)=C[C@@H]1N=C(N)N` [zanamivir], the “susceptibility of the virus” value is listed as “susceptible”.
